One experiment addresses T1, human JAK3 (Homo sapiens, UniProt P52333).
T1 construct: catalytic domain (amino acids 781-1124; catalog number PV3855); purchased Invitrogen PV3855
The experiment is described as follows: JAK3 inhibition assay. It is filed as biochemical. As to conditions: recombinant human JAK3 catalytic domain; polyGT substrate. Put shortly:
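Radiometric kinase assay: 0.5 ng JAK3 with 2.5 μg polyGT in Tris pH 7.5/MgCl2 buffer, 1 μM ATP plus 0.25 μCi 33P-γ-ATP, 1% DMSO, 45 min at 30 °C, stopped with phosphoric acid.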

Experiment [1] deals with pSTAT1(2)-luciferase reporter in HeLa cells triggered with human OSM. The experiment can be described thus: JAK-STAT signalling assay. It is filed as cell-based. To be noted: HeLa cells, pSTAT1(2)-luciferase reporter, human OSM 33 ng/mL, read-out: JAK-STAT IC50. Put shortly:
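HeLa cells transiently co-transfected with pSTAT1(2)-luciferase and LacZ control reporter, preincubated with compound 60 min, then stimulated with human OSM (33 ng/mL final) overnight at 37 °C. Luciferase read by luminescence; percent inhibition from vehicle and no-trigger controls, EC50 from dose-response.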

A further experiment deals with T2, human JAK1 (Homo sapiens, UniProt P23458).
T2 construct: catalytic domain, amino acids 866-1154; catalog number PV4774; purchased Invitrogen PV4774
The experiment is described as follows: JAK1 inhibition assay (polyGT substrate / Ulight-JAK1 peptide). It is filed as biochemical. As to conditions: recombinant human JAK1 catalytic domain; polyGT or Ulight-JAK1 peptide assay. Put shortly:
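Two formats. PolyGT radiometric: 45 min at 30 °C, stopped with phosphoric acid, counted as cpm. Ulight-JAK1 peptide: 60 min at room temperature, stopped with Eu-anti-phosphotyrosine/EDTA, read as RFU. Percent inhibition normalised to vehicle and 10 μM staurosporine.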

In another experiment the target is T3, human TYK2 (Homo sapiens, UniProt P29597).
T3 construct: catalytic domain (amino acids 871-1187; catalog number 08-147); purchased Carna Biosciences 08-147
T3 sequence (P29597 871-1187): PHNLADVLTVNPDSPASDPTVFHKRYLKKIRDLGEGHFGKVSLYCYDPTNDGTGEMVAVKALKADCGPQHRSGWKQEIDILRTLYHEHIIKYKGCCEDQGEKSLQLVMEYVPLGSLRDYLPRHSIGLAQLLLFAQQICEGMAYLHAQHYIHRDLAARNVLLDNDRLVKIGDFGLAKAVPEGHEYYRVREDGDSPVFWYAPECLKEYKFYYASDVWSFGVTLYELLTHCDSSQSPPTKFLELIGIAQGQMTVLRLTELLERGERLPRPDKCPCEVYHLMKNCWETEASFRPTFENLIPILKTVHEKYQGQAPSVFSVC
The experiment is described as follows: TYK2 inhibition assay. It is filed as biochemical. To be noted: recombinant human TYK2 catalytic domain, polyGT substrate. Put shortly: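 Radiometric kinase reaction run 90 min at 30 °C, stopped with phosphoric acid, washed and scintillation-counted.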

The subject of another experiment is BA/F3 cell line. The experiment can be described thus: BA/F3 viability assay. As to conditions: Mus musculus, BaF3, 48 h, read-out: BA/F3 IC50.
Another experiment relates to CTLL-2 cell line. The experiment can be described thus: CTLL2 viability assay. To be noted: Mus musculus, IL-2 dependent CTLL2 viability, 24 h, ATP-lite. It is filed as cell-based. From the text: The protocol describes the methods to analyse the activity of compounds on their ability to sustain the IL2-dependent viability of CTLL2.
Final DMSO concentration was 0.1%.

The next experiment has as its target T4, human JAK2 (Homo sapiens, UniProt O60674).
T4 construct: catalytic domain (amino acids 808-1132; catalog number PV4210); GST; purchased Invitrogen PV4210
The experiment can be described thus: JAK2 inhibition assay (polyGT substrate / Ulight-JAK1 peptide). It is filed as biochemical. As to conditions: recombinant human JAK2 catalytic domain; polyGT or Ulight-JAK1 peptide assay. Put shortly: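 Radiometric: 0.025 mU JAK2 with 2.5 μg polyGT, 1 μM ATP plus ^33P-ATP in MOPS pH 7.5 buffer, 1% DMSO, 90 min at 30° C.; filter counting. Alternative TR-FRET format with Ulight-JAK1 peptide, 60 min at room temperature, Eu-anti-phosphotyrosine detection.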

Molecules are shown by their SMILES. Where two headings read alike, the source gives them in different places.

Among the data in patent US20130217664A1, “NOVEL COMPOUNDS USEFUL FOR THE TREATMENT OF DEGENERATIVE AND INFLAMMATORY DISEASES” (priority 2012, published 2013) are IC50 values, retold here.

T2 sequence (P23458 866-1154): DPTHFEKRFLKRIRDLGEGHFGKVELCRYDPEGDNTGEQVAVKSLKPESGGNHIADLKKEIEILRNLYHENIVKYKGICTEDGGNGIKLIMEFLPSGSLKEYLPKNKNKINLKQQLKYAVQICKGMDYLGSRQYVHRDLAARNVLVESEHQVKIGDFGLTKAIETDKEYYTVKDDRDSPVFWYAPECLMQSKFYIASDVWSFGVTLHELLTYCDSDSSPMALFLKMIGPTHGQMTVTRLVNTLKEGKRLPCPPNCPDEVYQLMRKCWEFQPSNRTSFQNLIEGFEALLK
T1 sequence (P52333 781-1124): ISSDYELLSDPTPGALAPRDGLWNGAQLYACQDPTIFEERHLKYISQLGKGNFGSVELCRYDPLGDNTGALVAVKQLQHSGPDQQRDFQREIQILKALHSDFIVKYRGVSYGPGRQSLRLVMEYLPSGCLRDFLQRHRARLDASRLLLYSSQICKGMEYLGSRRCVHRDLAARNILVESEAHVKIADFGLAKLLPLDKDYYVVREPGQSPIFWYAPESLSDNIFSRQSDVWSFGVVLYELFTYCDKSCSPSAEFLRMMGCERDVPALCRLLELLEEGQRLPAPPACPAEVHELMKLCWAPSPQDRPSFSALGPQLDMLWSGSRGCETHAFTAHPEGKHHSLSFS
T4 sequence (O60674 808-1132): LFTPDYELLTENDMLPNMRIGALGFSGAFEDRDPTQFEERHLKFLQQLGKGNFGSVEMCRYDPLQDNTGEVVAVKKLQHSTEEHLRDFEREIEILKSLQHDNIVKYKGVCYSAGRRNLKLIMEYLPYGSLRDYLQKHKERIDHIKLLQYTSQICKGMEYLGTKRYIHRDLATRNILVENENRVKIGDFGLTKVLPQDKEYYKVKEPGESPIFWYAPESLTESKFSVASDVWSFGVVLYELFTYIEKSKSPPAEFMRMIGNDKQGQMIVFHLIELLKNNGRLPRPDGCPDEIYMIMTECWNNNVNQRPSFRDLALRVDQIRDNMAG

Consider `CCc1cc(-c2cncc(F)c2)ccc1N(C)c1cc2c(cn1)ncn2C` [Compound 133, N-(2-ethyl-4-(5-fluoropyridin-3-yl)phenyl)-N,1-dimethyl-1H-imidazo[4,5-c]pyridin-6-amine], for which the IC50 on human JAK3 is 501 to 1000 nM; in experiment [1] (Homo sapiens, HeLa), 1 to 500 nM; on human JAK1, 0.01 to 100 nM; at human TYK2 it was 101 to 500 nM; in the experiment with BA/F3 cell line, greater than 5000 nM.
Regarding `CCc1cc(C2=CCN(C(=O)C(C)O)CC2)ccc1N(C)c1cc2c(cn1)ncn2C` (centres unmarked) [Compound 201, 1-(4-(3-ethyl-4-(methyl(1-methyl-1H-imidazo[4,5-c]pyridin-6-yl)amino)phenyl)-5,6-dihydropyridin-1(2H)-yl)-2-hydroxypropan-1-one], the IC50 at human JAK3 was 101 to 500 nM; in experiment [1] (Homo sapiens, HeLa), 1 to 500 nM; at human JAK1, 0.01 to 100 nM; on human TYK2, 0.01 to 100 nM; in the experiment with CTLL-2 cell line, 501 to 1000 nM.
On to `CN(c1cc2c(cn1)ncn2C)c1ccc(CNS(C)(=O)=O)cc1F` [Compound 269, N-(3-Fluoro-4-(methyl(1-methyl-1H-imidazo[4,5-c]pyridin-6-yl)amino)benzyl)methanesulfonamide], for which the IC50 was 101 to 500 nM at human JAK3; 501 to 1000 nM in experiment [1] (Homo sapiens, HeLa); 0.01 to 100 nM on human JAK1; 0.01 to 100 nM on human TYK2; greater than 5000 nM in the experiment on BA/F3 cell line.
With `CCc1cc(C2CCN(C(=O)C(F)F)CC2)ccc1N(C)c1cc2c(cn1)ncn2C` [Compound 225, 1-(4-(3-ethyl-4-(methyl(1-methyl-1H-imidazo[4,5-c]pyridin-6-yl)amino)phenyl)piperidin-1-yl)-2,2-difluoroethanone], the IC50 was 0.01 to 100 nM on human JAK3; 501 to 1000 nM in experiment [1]; 0.01 to 100 nM at human JAK1; 0.01 to 100 nM on human TYK2; 1000 to 5000 nM in the experiment with BA/F3 cell line.
Take `CCc1cc(CN2CC3(COC3)C2)ccc1N(C)c1cc2c(cn1)ncn2C` [Compound 419, [2-Ethyl-4-(2-oxa-6-aza-spiro[3.3]hept-6-ylmethyl)-phenyl]-methyl-(1-methyl-1H-imidazo[4,5-c]pyridin-6-yl)-amine]: the IC50 on human JAK3 is greater than 1000 nM; on human JAK1, 101 to 500 nM; at human TYK2, greater than 1000 nM; at human JAK2, greater than 1000 nM; in the experiment on CTLL-2 cell line, greater than 1000 nM.
With `CCc1cc(C(C#N)N2CC[C@@H](OC)C2)ccc1N(C)c1cc2c(cn1)ncn2C` (stereo partly drawn) [Compound 448, {3-Ethyl-4-[methyl-(1-methyl-1H-imidazo[4,5-c]pyridin-6-yl)-amino]-phenyl}-((R)-3-methoxy-pyrrolidin-1-yl)-acetonitrile], the IC50 on human JAK3 was 101 to 500 nM; at human JAK1 it was 0.01 to 100 nM; at human TYK2, 0.01 to 100 nM; at human JAK2 it was 0.01 to 100 nM; in the experiment with CTLL-2 cell line it was greater than 1000 nM.
Take `CCc1cc(CN(C)S(C)(=O)=O)ccc1N(C)c1cc2c(cn1)ncn2C` [Compound 261, N-(3-ethyl-4-(methyl(1-methyl-1H-imidazo[4,5-c]pyridin-6-yl)amino)benzyl)-N-methylmethanesulfonamide]: the IC50 on human JAK3 fell in the range of 0.01 to 100 nM; on human JAK1, 0.01 to 100 nM; at human TYK2, 0.01 to 100 nM; in the experiment with CTLL-2 cell line it was 501 to 1000 nM; in the experiment with BA/F3 cell line, 1000 to 5000 nM.
As for `CCc1cc(C(C#N)N2CC(NC(=O)OC(C)(C)C)C2)ccc1N(C)c1cc2c(cn1)ncn2C` (centres unmarked) [Compound 436, [1-(Cyano-{3-ethyl-4-[methyl-(1-methyl-1H-imidazo[4,5-c]pyridin-6-yl)-amino]-phenyl}-methyl)-azetidin-3-yl]-carbamic acid tert-butyl ester], the IC50 was 101 to 500 nM on human JAK3; 0.01 to 100 nM at human JAK1; 0.01 to 100 nM at human TYK2; 0.01 to 100 nM on human JAK2; greater than 1000 nM with CTLL-2 cell line.
Take `CCc1cc(C(C#N)N2CCN(C)CC2)ccc1N(C)c1cc2c(cn1)ncn2C` (centres unmarked) [Compound 449, {3-Ethyl-4-[methyl-(1-methyl-1H-imidazo[4,5-c]pyridin-6-yl)-amino]-phenyl}-(4-methyl-piperazin-1-yl)-acetonitrile]: the IC50 on human JAK3 was greater than 1000 nM; on human JAK1 it was 0.01 to 100 nM; on human TYK2, 0.01 to 100 nM; on human JAK2, 101 to 500 nM; in the experiment on CTLL-2 cell line, greater than 1000 nM.
For `CC(C)S(=O)(=O)N1CC(c2ccc(N(C)c3cc4c(cn3)ncn4C)c(OC(F)F)c2)C1` [Compound 373, {2-Difluoromethoxy-4-[1-(propane-2-sulfonyl)-azetidin-3-yl]-phenyl}-methyl-(1-methyl-1H-imidazo[4,5-c]pyridin-6-yl)-amine], the IC50 was 501 to 1000 nM on human JAK3; 0.01 to 100 nM on human JAK1; greater than 1000 nM on human TYK2; 101 to 500 nM at human JAK2; greater than 1000 nM with CTLL-2 cell line.
On to `CCc1cc(CNS(=O)(=O)N2CC(F)(F)C2)ccc1N(C)c1cc2c(cn1)ncn2C` [Compound 424, 3,3-Difluoro-azetidine-1-sulfonic acid 3-ethyl-4-[methyl-(1-methyl-1H-imidazo[4,5-c]pyridin-6-yl)-amino]-benzylamide], for which the IC50 on human JAK3 is 101 to 500 nM; on human JAK1 it was 0.01 to 100 nM; at human TYK2 it was 101 to 500 nM; at human JAK2, 0.01 to 100 nM; in the experiment on CTLL-2 cell line, greater than 1000 nM.
On to `CCc1cc(CN2CCNC(=O)C2)ccc1N(C)c1cc2c(cn1)ncn2C` [Compound 421, 4-{3-Ethyl-4-[methyl-(1-methyl-1H-imidazo[4,5-c]pyridin-6-yl)-amino]-benzyl}-piperazin-2-one], for which the IC50 at human JAK3 was 501 to 1000 nM; at human JAK1, 0.01 to 100 nM; on human TYK2, 0.01 to 100 nM; at human JAK2, 101 to 500 nM; with CTLL-2 cell line, greater than 1000 nM.
Consider `CCc1cc(C2CCCCC2)ncc1N(C)c1cc2c(cn1)ncn2C` [Compound 432, (6-Cyclohexyl-4-ethyl-pyridin-3-yl)-methyl-(1-methyl-1H-imidazo[4,5-c]pyridin-6-yl)-amine], for which the IC50 is greater than 1000 nM at human JAK3; 0.01 to 100 nM at human JAK1; 101 to 500 nM at human TYK2; 101 to 500 nM on human JAK2; greater than 1000 nM with CTLL-2 cell line.
In the case of `CCc1cc(C(N)=O)ccc1N(C)c1cc2c(cn1)ncn2C` [Compound 137, 3-Ethyl-4-(methyl(1-methyl-1H-imidazo[4,5-c]pyridin-6-yl)amino)benzamide], the IC50 in experiment [1] (Homo sapiens, HeLa) is 501 to 1000 nM; in the experiment with CTLL-2 cell line it was greater than 1000 nM.
Take `CCc1cc(C(C#N)N2CCC(S(C)(=O)=O)CC2)ccc1N(C)c1cc2c(cn1)ncn2C` (centres unmarked) [Compound 452, {3-Ethyl-4-[methyl-(1-methyl-1H-imidazo[4,5-c]pyridin-6-yl)-amino]-phenyl}-(4-methanesulfonyl-piperidin-1-yl)-acetonitrile]: the IC50 at human JAK3 lay in the range of 0.01 to 100 nM; on human JAK1 it was 0.01 to 100 nM; at human TYK2, 0.01 to 100 nM; at human JAK2 it was 0.01 to 100 nM; with CTLL-2 cell line, 501 to 1000 nM.
As for `CCc1cc(CN2CC(F)(F)C2)ccc1N(C)c1cc2c(cn1)ncn2C` [Compound 378, [4-(3,3-Difluoro-azetidin-1-ylmethyl)-2-ethyl-phenyl]-methyl-(1-methyl-1H-imidazo[4,5-c]pyridin-6-yl)-amine], the results for the IC50 with CTLL-2 cell line and in the experiment with BA/F3 cell line were greater than 1000 nM and greater than 5000 nM, respectively.
